Reference: PubChem BioAssay AID1188 (EPA DSSTox, 2008)
Activity calls are given as the source filed them.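 The calls were made as follows: active = a concentration killing half the fathead minnows in the acute test was determined; inconclusive = some fish died but not half at top dose; inactive = no fish died even at top dose.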

The compounds below were run on Fathead minnow (Pimephales promelas) acute toxicity, lethality (assay: DSSTox (EPAFHM) EPA Fathead Minnow Acute Toxicity).
Source text: The EPA Fathead Minnow Acute Toxicity database was generated by the U.S. EPA Mid-Continental Ecology Division (MED) for the purpose of developing an expert system to predict acute toxicity from chemical structure based on mode of action considerations. […] A second valuable aspect of this database, from a QSAR modeling perspective, is the inclusion of general mode-of-action (MOA) classifications of acute toxicity response for individual chemicals derived from study results. MOA assignments are biologically based classifications, allowing definition of chemical similarity based upon biological activity instead of organic chemistry functional class as most commonly employed in QSAR study. MOA classifications should strengthen the scientific basis for construction of individual QSARs. However, it is cautioned that the broad MOA categorizations should not be construed to represent a single molecular mechanism; for example, CNS seizure agents and respiratory inhibitors are known to act through a variety of receptors. The EPA Fathead Minnow database and results have been used by EPA MED to build components of the ASTER prediction system, which incorporates MOA-based QSARs for the prediction of aquatic toxicity of environmental and industrial chemicals. Briefly, MOA classifications for individual chemicals, derived from experiments and provided in the EPA Fathead Minnow database, were used to derive substructural rules for assigning a new chemical to an MOA category based solely on chemical structure. Once a new chemical is assigned to an MOA category on this basis, the logP-based QSAR for that MOA category is applied.
The DSSTox EPAFHM database (available from the DSSTox Source URL) includes information pertaining to organic chemical class assignments (ChemClass_FHM), acute toxicity in fathead minnow (LC50_mg), dose-response assessments (LC50_Ratio, ExcessToxicityIndex), behavioral assessments (FishBehaviorTest), joint toxicity MOA evaluations of mixtures (MOA_MixtureTest), and additional MOA evaluation of fish acute toxicity syndrome (FishAcuteToxSyndrome) in rainbow trout. All of these indicators, to the extent available, were considered in the determination of MOA and, additionally, were used to determine a level of confidence in the MOA assignment for each chemical (MOA_Confidence). […] Activity Score is mapping of LOG10 (1/LC50_mmol) activity values spanning activity range [MIN, MAX] onto Integer 1-100 Activity range, where 100 is highest potency and 1 is lowest. If Activity Outcome is "active": Activity Score = 100 * INTEGER[(log10(1/ LC50_mmol) - MIN)/([…])].
O=C(O)c1cccc(C(=O)O)n1 gave a Potency of 1930 µM.
Work on COC(=O)c1ccc(O)cc1O yielded a Potency of 272 µM.
C/C=N/O was tested, and the Potency was 1290 µM.
With OC(c1ccc(Cl)cc1)(c1ccc(Cl)cc1)C(Cl)(Cl)Cl the Potency was 1.67 µM.
In the case of CCCCCCCCCCCCc1ccc(N)cc1, the outcome is reported as “inactive; moa not determined either due to lack of toxicity at saturation or late test res”.
Compound CCOC(CN(C)CC(OCC)OCC)OCC has a Potency of 2410 µM.
With CC(=O)c1ccccc1 the Potency was 1350 µM.
C(/C=C/c1ccccc1)=C\c1ccccc1 was tested, and the outcome was “inactive; moa not determined either due to lack of toxicity at saturation or late test res”.
For OCCN1CCNCC1, the Potency was 49200 µM.
Fc1ccc(Oc2ccc(F)cc2)cc1 gave a Potency of 5.48 µM.
CCc1ccccc1 was tested, and the Potency was 98.9 µM.
C=Cn1c2ccccc2c2ccccc21 gave a Potency of 0.0166 µM.
With CCOCCOCCO the Potency was 198000 µM.
CCC(=O)CC showed a Potency of 17900 µM.
Work on CCCSCCCCSCCC yielded a Potency of 14.5 µM.
For CCOP(=O)(Cc1ccccc1)OCC, the Potency was 1470 µM.
Cc1cccnc1 gave a Potency of 1550 µM.
Compound Cc1ccc(O)cc1 has a Potency of 153 µM.
O=Cc1ccc(Oc2ccccc2)cc1 gave a Potency of 23.2 µM.
With CC(=O)c1ccc(Cl)c([N+](=O)[O-])c1 the Potency was 27.6 µM.
In the case of CN1CCNCC1, the Potency is reported as 23000 µM.
With C=C[C@@](C)(O)CC[C@H]1C(=C)CC[C@H]2C(C)(C)CCC[C@]12C the Potency was 0.413 µM.
Compound CCc1ccc(O)cc1 has a Potency of 85.1 µM.
In the case of O=C(NC1CCCCC1)OCCCl, the Potency is reported as 170 µM.
CCCC(C)=O was tested, and the Potency was 14400 µM.
CC(=O)CC(=O)c1ccccc1 showed a Potency of 6.78 µM.
Compound Cc1ccccc1 has a Potency of 368 µM.
Work on ClC(Cl)=C(Cl)C(Cl)=C(Cl)Cl yielded a Potency of 0.345 µM.
Cc1ccccn1 gave a Potency of 9630 µM.
With O=Cc1ccc(Cl)cc1 the Potency was 15.6 µM.
Compound N#CCCl has a Potency of 17.8 µM.
In the case of ClC(Cl)C(Cl)Cl, the Potency is reported as 121 µM.
For CC(C)OC(C)C, the Potency was 7690 µM.
In the case of CC(C)c1ccc2c(c1)CC[C@H]1[C@](C)(C(=O)O)CCC[C@]21C, the Potency is reported as 6.99 µM.
For Cc1ccc(S(=O)(=O)n2ccnc2)cc1, the Potency was 188 µM.
Nc1ccc(F)cc1 gave a Potency of 152 µM.
Compound Oc1cccnc1Br has a Potency of 2700 µM.
For CCCCN, the Potency was 3660 µM.
Compound CCCCCCCCO has a Potency of 104 µM.
CC1CNCCN1 (stereo not drawn) was tested, and the Potency was 22400 µM.
With COC(=O)c1cc(Cl)ccc1Cl the Potency was 68.3 µM.
O=[N+]([O-])c1cccc(P(=O)(c2cccc([N+](=O)[O-])c2)c2cccc([N+](=O)[O-])c2)c1 was tested, and the outcome was “inactive; moa not determined either due to lack of toxicity at saturation or late test res”.
Work on CCNCCO yielded a Potency of 16600 µM.
CCCCCCCN showed a Potency of 189 µM.
For Cc1ccc(Cl)c(Cl)c1, the Potency was 18.1 µM.
In the case of NCCO, the Potency is reported as 33900 µM.
Compound O=C(Nc1ccccc1)c1ccccc1O has a Potency of 18.5 µM.
Work on O=P(Oc1ccccc1)(Oc1ccccc1)Oc1ccccc1 yielded a Potency of 2.66 µM.
With CCC(C)N (stereo not drawn) the Potency was 3760 µM.
For CCOC(N)=O, the Potency was 58800 µM.
Work on CCCCCCCCC(=O)O yielded a Potency of 657 µM.
For ON=C1CCCCC1, the Potency was 1840 µM.
Work on CC(C)=CC1C(C(=O)OCc2coc(Cc3ccccc3)c2)C1(C)C (stereo not drawn) yielded a Potency of 0.0182 µM.
CC(C)(C)CN gave a Potency of 5450 µM.
CNC(=O)O/N=C(\C)SC was tested, and the Potency was 13 µM.
Compound c1ccc2ncccc2c1 has a Potency of 602 µM.
Compound c1ccc(Nc2ccccc2)cc1 has a Potency of 22.4 µM.
Cl[C@@H]1CCCC[C@H]1Cl showed a Potency of 120 µM.
ClCCN1CCCC1 was tested, and the Potency was 900 µM.
COc1ccc(C=O)c(OC)c1 gave a Potency of 121 µM.
For ClC(Cl)C(Cl)(Cl)Cl, the Potency was 37.2 µM.
Oc1cc(Cl)c(Cl)c(Cl)c1Cl was tested, and the Potency was 1.77 µM.
CCCCOC(=O)c1cccc(C(=O)OCCCC)c1 showed a Potency of 3.23 µM.
In the case of CC(C)(C)SSC(C)(C)C, the Potency is reported as 7.68 µM.
For CCOC(=O)N(C(=O)OCC)C(=O)OCC, the Potency was 57 µM.
c1ccoc1 showed a Potency of 896 µM.
O[C@@H]1C[C@H]2CC[C@@H]1C2 showed a Potency of 2030 µM.
O=Cc1c(F)cccc1Cl showed a Potency of 59.3 µM.
For CC(C)(C)c1ccc(C(N)=O)cc1, the Potency was 180 µM.
C=CC(Cl)CCl (stereo not drawn) gave a Potency of 65.4 µM.
In the case of CC#CCO, the Potency is reported as 144 µM.
In the case of O=[N+]([O-])c1ccc(O)c([N+](=O)[O-])c1, the Potency is reported as 59.2 µM.
CCN(CC)c1ccc(C=O)cc1 was tested, and the Potency was 135 µM.
CCC[CH2][Sn]([CH2]CCC)([CH2]CCC)[CH2]CCC was tested, and the Potency was 0.13 µM.
In the case of Oc1ccc(Oc2ccc(O)cc2)cc1, the Potency is reported as 28.6 µM.
Work on Brc1nc(Br)c(Br)[nH]1 yielded a Potency of 20.1 µM.
With OCC(Br)CBr (stereo not drawn) the Potency was 326 µM.
With ClCCl the Potency was 3890 µM.
In the case of Oc1cccnc1Cl, the Potency is reported as 4800 µM.
Compound CC(C)=C1C=C2CC[C@@H]3[C@](C)(CCC[C@@]3(C)C(=O)O)[C@H]2CC1 has a Potency of 4.93 µM.
CCCCCCCCCCCC#N showed a Potency of 2.37 µM.
Cc1c[nH]c2ccccc12 gave a Potency of 67.4 µM.
CCN(CC)c1ccccc1 gave a Potency of 110 µM.
In the case of O=Cc1ccc(Cl)cc1Cl, the Potency is reported as 10.3 µM.
Compound CCOCCOC(C)=O has a Potency of 319 µM.
Compound O=C(Oc1ccccc1)c1ccccc1O has a Potency of 5.51 µM.
With O=P(c1ccccc1)(c1ccccc1)c1ccccc1 the Potency was 193 µM.
C=C(C)C(=O)OCC1CCCO1 (stereo not drawn) showed a Potency of 204 µM.
Compound CCOP(=S)(OCC)SCSc1ccc(Cl)cc1 has a Potency of 0.7 µM.
COCCCNCc1cc(OC)c(OC)c(OC)c1 gave a Potency of 505 µM.
C=C(C)C(=O)OCCOCC gave a Potency of 175 µM.
CS(C)=O gave a Potency of 435000 µM.
Compound C#CC(O)CCCCC (stereo not drawn) has a Potency of 3.27 µM.
With C#CC(O)(c1ccccc1)c1ccccc1 the Potency was 53.3 µM.
CCCCCCOc1ccc(N)cc1 showed a Potency of 15.6 µM.
OCCOCCO gave a Potency of 709000 µM.
Work on Oc1cccc2ccccc12 yielded a Potency of 32.1 µM.
In the case of OCCNCCO, the Potency is reported as 44800 µM.
Oc1ccc(Cl)cc1Cl gave a Potency of 47.5 µM.
CNC(=O)Oc1ccc(N(C)C)c(C)c1 gave a Potency of 9.36 µM.
In the case of C=CC=O, the Potency is reported as 0.303 µM.
CC1(C)OCC(CO)O1 (stereo not drawn) showed a Potency of 126000 µM.
CCCCCc1ccccc1 was tested, and the Potency was 11.5 µM.
In the case of O=[N+]([O-])c1c(Cl)cc(Cl)c([N+](=O)[O-])c1Cl, the Potency is reported as 0.818 µM.
C1C2CC3CC1CC(C2)C3 showed a Potency of 2.06 µM.
Compound CC(C)O has a Potency of 144000 µM.
CCCCCCCCCc1ccc(O)cc1 gave a Potency of 0.635 µM.
For CCCCCCCCCCN, the Potency was 6.55 µM.
C=CC(=O)OCC(C)O (stereo not drawn) was tested, and the Potency was 26 µM.
COC(=O)c1ccc(C(=O)OC)c([N+](=O)[O-])c1 showed a Potency of 27.3 µM.
With C=CCc1ccccc1O the Potency was 112 µM.
With Cc1ccccc1F the Potency was 176 µM.
With COc1c(O)c(Br)cc(C=O)c1[N+](=O)[O-] the Potency was 266 µM.
Compound CCCCCCN has a Potency of 559 µM.
In the case of O[C@@H]1CCCC[C@H]1c1ccccc1, the Potency is reported as 252 µM.
With CCCCCCCCCCO the Potency was 15.2 µM.
With O=S(Cc1ccccc1)Cc1ccccc1 the Potency was 348 µM.
With Clc1ccccc1 the Potency was 150 µM.
Work on O=C(O)c1ccccc1O yielded a Potency of 12500 µM.
Compound Nc1ccccc1Cl has a Potency of 45 µM.
Compound O=c1cc(-c2ccccc2)oc2ccccc12 has a Potency of 15.7 µM.
In the case of COc1ccc(OC)c(C(=O)CBr)c1, the Potency is reported as 2.55 µM.
CCOC(=O)c1ccccc1C(=O)OCC gave a Potency of 143 µM.
CCOP(=S)(OCC)SCCSCC showed a Potency of 9.95 µM.
With CCc1cccc(CC)c1N(COC)C(=O)CCl the Potency was 18.5 µM.
O=Cc1ccccc1 was tested, and the Potency was 93 µM.
CC(=O)CC(C)=O showed a Potency of 1350 µM.
Work on CC(C)=CC=C(C)C yielded a Potency of 34.3 µM.
Nc1ccc(F)cc1C(F)(F)F was tested, and the Potency was 165 µM.
c1ccc(-c2nc(-c3ccccc3)c(-c3ccccc3)[nH]2)cc1 was tested, and the outcome was “inactive; moa not determined either due to lack of toxicity at saturation or late test res”.
Compound CCCCCCCCCCCC(C)=O has a Potency of 1.81 µM.
For CCOc1ccc(C=O)cc1, the Potency was 187 µM.
C1CCOC1 was tested, and the Potency was 30000 µM.
For CCSCCSCC, the Potency was 401 µM.
For BrC(Br)c1ccccc1C(Br)Br, the Potency was 1.04 µM.
Cc1ccccc1O showed a Potency of 129 µM.
CNc1ccccc1 showed a Potency of 933 µM.
For Nc1ccc([N+](=O)[O-])cc1[N+](=O)[O-], the Potency was 80.8 µM.
Compound CCCCC=O has a Potency of 150 µM.
CN(C)c1ccccn1 was tested, and the Potency was 1040 µM.
For N#Cc1ccccc1C(F)(F)F, the Potency was 247 µM.
With C[N+](C)(C)C the Potency was 4220 µM.
Compound Cc1c(Cl)cccc1NC=O has a Potency of 275 µM.
Work on ClCC(Cl)Cl yielded a Potency of 612 µM.
Cc1cc(C(C)(C)C)c(O)c(C(C)(C)C)c1 showed a Potency of 1.65 µM.
For CCOC(=O)CCCCC(=O)OCC, the Potency was 89.9 µM.
Compound OC(C(F)(F)F)C(F)(F)F has a Potency of 1450 µM.
Compound Clc1nc(Cl)c(Cl)c(Cl)c1Cl has a Potency of 1.87 µM.
ClC(Cl)=C(Cl)c1c(Cl)c(Cl)c(Cl)c(Cl)c1Cl was tested, and the outcome was “inactive; moa not determined either due to lack of toxicity at saturation or late test res”.
Compound CNC(=O)O/N=C(\SC)C(=O)N(C)C has a Potency of 30.9 µM.
With CCOP(=O)(OCC)SCCSCC the Potency was 61.9 µM.
Compound CC(C)C(C(=O)OC(C#N)c1cccc(Oc2ccccc2)c1)c1ccc(Cl)cc1 (stereo not drawn) has a Potency of 0.0121 µM.
With COC(=O)c1ccc(Cl)cc1[N+](=O)[O-] the Potency was 128 µM.
